{TEG-Chol} = cholesterol attached via TEG linker; l = locked nucleic acid (LNA); {Toco} = tocopherol conjugate; d = 2'-deoxy (DNA)
Tested on: Hic-5
Experiment: Condition 8: Hic-5 expression by RT-PCR, human HSCs, ASO 5 µM without transfection reagent, 72 hours
Format: cell-based
Settings: ratio, mean±SEM

Substance	Expression Inhibition Rate (4) Condition 8 (n=2)
H26_cho: modified at the 5' end of H26 with TEG-cholesterol; GCTCGTGGAAACCCTC; LNA 1-3,14-16; SEQ ID NO 458 (sugars from the 5' end l3 d10 l3, 5' {TEG-Chol}, backbone and methylation of C not given here)	0.161±0.110
H26_toco: modified at the 5' end of H26 with tocopherol; GCTCGTGGAAACCCTC; LNA 1-3,14-16; SEQ ID NO 459 (sugars from the 5' end l3 d10 l3, 5' {Toco}, backbone and methylation of C not given here)	0.738±0.010
